ChEMBL document CHEMBL5620392, “Spiroindole-containing compounds bearing phosphonate group of potential Mpro-SARS-CoV-2 inhibitory properties” (Eur J Med Chem, 2023)

Assays:
[1] = Cytotoxicity against African green monkey Vero E6 cells assessed as reduction in cell viability; format: toxicity, cell-based, Vero C1008; conditions: chlorocebus sabaeus
[2] = test system: SARS-CoV-2; assay: Antiviral activity against SARS-CoV-2 infected in African green monkey Vero E6 cells assessed as inhibition of viral infection; format: functional, organism-based; conditions: Severe acute respiratory syndrome coronavirus 2, Vero C1008
[3] = Selectivity index, ratio of CC50 for African green monkey Vero E6 cells to IC50 for SARS-CoV-2 infected in African green monkey Vero E6 cells; format: toxicity; conditions: read-out: Selectivity Index
[4] = test system: SARS-CoV-2; assay: Antiviral activity against SARS-CoV-2 infected in African green monkey Vero E6 cells; format: functional, organism-based; conditions: Severe acute respiratory syndrome coronavirus 2, Vero C1008

| Compound | CC50 [1] [µM] | IC50 [2] [µM] | selectivity ratio [3] | EC50 [4] [µM] |
| --- | --- | --- | --- | --- |
| CCN(CCO)CCCC(C)Nc1ccnc2cc(Cl)ccc12 (stereo not drawn) [HYDROXYCHLOROQUINE] | 356 | 36.9 | 9.7 | – |
| CCN(CC)CCCC(C)Nc1ccnc2cc(Cl)ccc12 (stereo not drawn) [CHLOROQUINE] | – | 25 | – | – |
| COc1cccc2[nH]c(C(=O)N[C@@H](CC(C)C)C(=O)N[C@@H](C[C@@H]3CCNC3=O)C(=O)CO)cc12 [PF-00835231] | – | – | – | ≤ 0.23 |
| NC(=O)c1nc(F)cnc1O | 5260 | 1380 | 3.8 | – |
